Measurements: US6013666A, “Oxirane carboxylic acid derivative and its manufacturing method” (Jew; Sang Sup, priority 1996, dated 2000)

Columns and labels:
[1] = test system: male diabetes-induced Sprague-Dawley rats; assay: Blood glucose lowering effects on streptozotocin diabetes-induced rats; format: in vivo; conditions: Rattus norvegicus; STZ diabetes-induced rats, 50 mg/kg oral; measured at 90, 120 and 180 mins, smallest values taken; read-out: Blood glucose lowering rate %
Experimental: Blood Glucose Lowering Effects of the Compounds Prepared by the Procedures of Example 1~6, 11~18
Two groups of male diabetes-induced Sprague-Dawley rats (each of 4-5 rats weighing about 250 g) were used for this experiment. 45 mg/kg of streptozotocin (STZ) dissolved in 0.1M citrate buffer (pH 4.5, 0-4° C.) was injected to the tail vein of fasted rats for 1 day. After elapse of 7 days, their blood glucose concentration were measured and animals having the blood serum concentration of more than 350 mg/dl were used as diabetes-induced rats for this experiment. The rats were intravenously administered at a daily dose of 1 ml/kg, while the normal control group received equal volume of 0.1M citrate buffer.
7 days after being treated with streptozotocin, diabetes-induced rats were orally administered at a dose of 50 mg/kg of the compounds prepared by the procedures of Examples 1-6, 11~18. Then, at time intervals of 90 mins, 120 mins and 180 mins, their blood glucose concentrations were measured and the smallest values were taken. The compounds of […] were dissolved in 30% ethanol until its final concentration became 2 ml/kg, while the control group was orally received equal volume of 30% ethanol.
Significant difference between two groups was determined by ANOVA test, together with a post hoc test using Newman-Keuls test.

Mature rats = assay: Acute toxicity test on rats, oral; format: in vivo; conditions: rats
Experimental: (§1) The acute toxicity tests on rats were performed using the compound prepared by the procedure of the Example 1. Mature rats weighing 200-250 g were orally given the compound of the Example 1 dissolved in ethylacetate in parallel with its gradually increasing concentration.

[2] = Acute toxicity test on rats, oral; format: in vivo; conditions: rat, in vivo, rats 200-250 g, dissolved in ethylacetate, calculated by number of killed animals
Experimental: as §1

[3] = phase II clinical trials; cited from earlier work

| Compound | inhibition in vivo at 50 mg/kg [1] [%] | other results |
| --- | --- | --- |
| CCOC(=O)C1(CCCCCCOC(=O)c2ccc(Cl)cc2)CO1 (stereo not drawn) [Example 1, Ethyl-2-[6-(4-chlorophenylcarboxyl)hexyl]-oxirane-2-carboxylic acid] | 11.8 | number of killed animals/number of animals per group (Mature rats; dose 160 mg/kg): 0/10; number of killed animals/number of animals per group (Mature rats; dose 300 mg/kg): 1/10; number of killed animals/number of animals per group (Mature rats; dose 400 mg/kg): 2/10; number of killed animals/number of animals per group (Mature rats; dose 500 mg/kg): 5/10; number of killed animals/number of animals per group (Mature rats; dose 600 mg/kg): 8/10; LD50 [2]: 487 mg/kg |
| CCOC(=O)C1(CCCCCCOC(=O)c2cnc(C)cn2)CO1 (stereo not drawn) [Example 2, Ethyl-2-[6-(5-methyl-2-pyrazincarboxyl)hexyl]-oxirane-2-carboxylic acid] | 28.2 | – |
| CCOC(=O)C1(CCCCCCOC(=O)c2cncc(Br)c2)CO1 (stereo not drawn) [Example 3, Ethyl-2-[6-(5-bromo-3-pyridincarboxyl)hexyl]-oxirane-2-carboxylic acid] | 8.1 | – |
| CCOC(=O)C1(CCCCCCOC(=O)c2ccc(OC)nc2OC)CO1 (stereo not drawn) [Example 4, Ethyl-2-[6-(2,6-dimethoxy-5-pyridincarboxyl)hexyl]-oxirane-2-carboxylic acid] | 21.6 | – |
| CCOC(=O)C1(CCCCCCOC(=O)c2cccs2)CO1 (stereo not drawn) [Example 5, Ethyl-2-[6-(2-thiophenecarboxyl)hexyl]-oxirane-2-carboxylic acid] | 16.8 | – |
| CCOC(=O)C1(CCCCCCOC(=O)c2cnccn2)CO1 (stereo not drawn) [Example 6, Ethyl-2-[6-(2-pyrazincarboxyl)hexyl]-oxirane-2-carboxylic acid] | 24.1 | – |
| CCOC(=O)C1(CCCCCCOCc2cccs2)CO1 (stereo not drawn) [Example 11, Ethyl-2-[6-(2-thiophenemethoxy)hexyl]oxirane-2-carboxylic acid] | 75.9 | – |
| CCOC(=O)C1(CCCCCCn2nc(C)cc2C)CO1 (stereo not drawn) [Example 12, Ethyl-2-[6-(3,5-dimethylpyrazole)hexyl]oxirane-2-carboxylic acid] | 47 | – |
| CCOC(=O)C1(CCCCCCOCc2ccc(OC)s2)CO1 (stereo not drawn) [Example 13, Ethyl-2-[6-(5-methoxy-2-thiophenemethoxy)hexyl]oxirane-2-carboxylic acid] | 5.9 | – |
| CCOC(=O)C1(CCCCCCOCc2ccc(C)s2)CO1 (stereo not drawn) [Example 14, Ethyl-2-[6-(5-methyl-2-thiophenemethoxy)hexyl]oxirane-2-carboxylic acid] | 33.7 | – |
| CCOC(=O)C1(CCCCCCOCc2ccc(C)o2)CO1 (stereo not drawn) [Example 15, Ethyl-2-[6-(5-methyl-2-furanmethoxy)hexyl]oxirane-2-carboxylic acid] | 6.8 | – |
| CCOC(=O)C1(CCCCCCOCCc2cccs2)CO1 (stereo not drawn) [Example 16, Ethyl-2-[6-(2-thiophenethoxy)hexyl]oxirane-2-carboxylic acid] | 5.6 | – |
| CCOC(=O)C1(CCCCCCOCc2ccc(Cl)s2)CO1 (stereo not drawn) [Example 17, Ethyl-2-[6-(5-chloro-2-thiophenemethoxy)hexyl]oxirane-2-carboxylic acid] | 19.2 | – |
| CCOC(=O)C1(CCCCCCOCc2sccc2Cl)CO1 (stereo not drawn) [Example 18, Ethyl-2-[6-(3-chloro-2-thiophenemethoxy)hexyl]oxirane-2-carboxylic acid] | 30.7 | – |
| CCOC(=O)[C@@]1(CCCCCCOc2ccc(Cl)cc2)CO1 [etomoxir] | – | side effects associated with prolonged administration [3]: enlarged heart and toxicity in the liver |
